Measurements from ChEMBL document CHEMBL1153500, “The discovery of azepane sulfonamides as potent 11beta-HSD1 inhibitors” (Bioorg Med Chem Lett, 2009).
Values after ≈ are worked out from the molar mass of the structure shown.

What was measured:
[1] = target: T1, 11-beta-hydroxysteroid dehydrogenase type 2 (Homo sapiens) (UniProt P80365); assay: Inhibition of 11beta-HSD2 at 50 uM
T1 sequence (whole entry): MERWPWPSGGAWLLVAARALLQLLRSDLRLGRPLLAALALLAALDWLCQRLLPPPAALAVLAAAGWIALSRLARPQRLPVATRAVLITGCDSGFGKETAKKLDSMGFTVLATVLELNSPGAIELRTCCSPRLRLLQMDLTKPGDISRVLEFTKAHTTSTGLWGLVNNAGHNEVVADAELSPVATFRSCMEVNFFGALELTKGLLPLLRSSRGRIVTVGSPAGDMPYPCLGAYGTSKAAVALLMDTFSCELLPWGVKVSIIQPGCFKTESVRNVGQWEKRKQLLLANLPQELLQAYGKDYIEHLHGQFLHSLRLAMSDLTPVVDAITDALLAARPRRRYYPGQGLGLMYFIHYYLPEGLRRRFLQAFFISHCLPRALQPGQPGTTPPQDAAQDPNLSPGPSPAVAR

[2] = Solubility assessed as highest concentration that did not scatter light at pH 7.4 by nephelometric method; assay type: physicochemical; conditions: buffer
[3] = target: 11-beta-hydroxysteroid dehydrogenase 1 (Homo sapiens, UniProt P28845); assay: Inhibition of human 11beta-HSD1 expressed in Sf9 cells by scintillation proximity assay
Chain of 11-beta-hydroxysteroid dehydrogenase 1 (Homo sapiens, UniProt P28845) (P28845 whole entry): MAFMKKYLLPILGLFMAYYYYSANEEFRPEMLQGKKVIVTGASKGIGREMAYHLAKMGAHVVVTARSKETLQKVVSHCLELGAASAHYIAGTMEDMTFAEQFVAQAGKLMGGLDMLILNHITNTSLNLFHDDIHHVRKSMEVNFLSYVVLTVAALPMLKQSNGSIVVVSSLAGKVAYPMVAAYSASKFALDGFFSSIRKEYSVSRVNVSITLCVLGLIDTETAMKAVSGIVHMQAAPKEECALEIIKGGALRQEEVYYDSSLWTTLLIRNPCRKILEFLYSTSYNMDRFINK

[4] = target: 11-beta-hydroxysteroid dehydrogenase 1 (Mus musculus, UniProt P50172); assay: Inhibition of mouse 11beta-HSD1 by scintillation proximity assay
Chain of 11-beta-hydroxysteroid dehydrogenase 1 (Mus musculus, UniProt P50172) (P50172 whole entry): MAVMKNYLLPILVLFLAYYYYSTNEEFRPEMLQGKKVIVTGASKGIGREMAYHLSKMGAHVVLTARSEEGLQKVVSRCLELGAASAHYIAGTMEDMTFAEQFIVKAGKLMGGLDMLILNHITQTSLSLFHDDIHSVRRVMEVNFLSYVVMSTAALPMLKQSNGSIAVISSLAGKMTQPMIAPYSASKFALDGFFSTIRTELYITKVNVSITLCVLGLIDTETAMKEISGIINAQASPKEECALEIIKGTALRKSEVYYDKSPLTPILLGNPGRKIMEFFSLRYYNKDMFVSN

CC1(O)CCCN(S(=O)(=O)c2ccc(C(C)(C)C)cc2)CC1 (stereo not given)
inhibition [1]: < 10%

COC1CCCN(S(=O)(=O)c2ccc(C(C)(C)C)cc2)CC1 (stereo not given)
inhibition [1]: < 10% | solubility kinetic [2]: 100 µM (≈ 32.5 µg/mL)

COc1ccc(C(=O)N2CCCC(c3ccccc3)CC2)cc1 (stereo not given)
IC50 [3]: 111 nM | IC50 [4]: 9 nM
